# Test results as given in patent US6362225B1 (priority 1999, dated 2002).
# Legend:
# cold virus [1] = test: Nasal spray of lysine solution in test subjects with colds or flu; assay type: in vivo, human
# cold virus [2] = test: Nasal spray of lysine after exposure to persons with severe colds; assay type: in vivo, human; conditions: nasal spray continued for at least three days after exposure to persons with severe colds
# From the text: The administration of lysine in the form of a nasal spray was used by other test subjects after being exposed to persons with severe colds, that is persons who were frequently coughing and sneezing.
# sore throat = test: Lysine nasal inhalation or throat spray for sore throat; assay type: in vivo, human; conditions: one test subject
# From the text: A test subject used nasal inhalation of lysine every three hours to treat a sore throat and reported relief after one day.
# Another test subject who has suffered from throat infections for many years used the lysine spray directly into the throat at the first sign of soreness on at least four occassions. The treatment was repeated every three to four hours for two days.
# herpes simplex II = test: Lysine nasal spray for herpes outbreaks; assay type: in vivo, human
# canker sore = test: Lysine solution applied directly to canker sores and cold sores; assay type: in vivo, human
# From the text: Another test subject with a long history of canker sore outbreaks reported that once one canker sore appeared several more usually followed within a day or two. These sores were quite painful and often lasted from five to ten days. The subject was given the lysine solution and told to apply it directly to the lesion. […] The application was repeated every three or four hours until the canker sore was completely healed. […] Since this subject has been using the lysine solution the outbreaks of canker sores are infrequent and are healed very quickly.
# As shown above, the use of lysine by targeting the infected areas may shorten the duration of the outbreak and may even prevent illnesses such as colds and sore throats if used directly after contact with an infected person or at the onset of symptoms. Essentially the use of the lysine solution or composition in the nose, mouth and/or lungs, or other specific areas of the body may represent a topical application of lysine to the infected area. Thus, the duration of an infection may be considerably lessened by applying lysine to that infected area.
# [3] = test system: upper respiratory infections settled in the lungs; test: Lysine solution by nebulizer directly into the lungs; assay type: in vivo, human; conditions: one test subject
# From the text: Often upper respiratory infections settle in the lungs and can cause prolonged discomfort, coughing and heavy chest congestion.
# [4] = cited from earlier work
# [5] = ten test subjects, cold virus, […], 3500 mg lysine in 1.5 oz. 0.65% saline, spray twice in each nostril every three hours
smiles,measurement,setting,value
"Cl.NCCCC[C@H](N)C(=O)O [lysine, L-lysine monohydrochloride]",Effectiveness of treatment at lengthened intervals,"cold virus [1]; colds or flu, intervals lengthened to six or more hours, compared with one to four hours",considerably less effective
same,Number of subjects reporting relief obtained in 1 day,cold virus [1]; [5],5
same,Number of subjects reporting relief obtained in 2 days,cold virus [1]; [5],3
same,Number of subjects reporting relief obtained in 3 days,cold virus [1]; [5],2
same,Cold symptoms after exposure,cold virus [2],never felt cold symptoms at all
same,Time to relief of sore throat,sore throat; nasal inhalation every three hours,one
same,Development of full sore throat,"sore throat; spray directly into the throat at first sign of soreness, every three to four hours for two days, at least four occasions",never occurred
same,Effect on herpes simplex II outbreak,"herpes simplex II; one test subject with twenty year history, nasal spray every three hours for one day",stopped the outbreak
same,Response of genital herpes outbreaks,"herpes simplex II; one test subject, nasal spray plus lysine tablets, compared with tablets alone",responded much faster than with the tablets alone
same,Prevention of herpes outbreaks,"herpes simplex II; same test subject, regular use of the nasal spray",prevented herpes outbreaks to the point of almost eliminating them altogether
same,Secondary canker sore lesions,"canker sore; one test subject, application repeated every three or four hours",no secondary lesions developed
same,Time until canker sore completely healed,"canker sore; one test subject, application repeated every three or four hours, sores previously lasted five to ten days",three to five
same,Pain associated with canker sore,"canker sore; one test subject, solution applied directly to the lesion",alleviated as soon as the solution was applied
same,Healing response of cold sores and canker sores,"canker sore; solution applied directly, in contrast to ingestion of lysine tablets alone",fast healing response
same,Onset of lessening of lung symptoms,[3],lessened almost immediately
same,Time until symptoms cleared up completely,[3],one to three
same,Toxic levels,[4]; general statement,No toxic levels
same,Adverse side effects of ingested lysine,[4]; high doses ingested as tablets,gastric distress
